# According to US20070203228A1, “Method for treating chronic obstructive pulmonary disease” (SUCAMPO AG, priority 2006, published 2007):
# Entries after “also recorded” stand apart in the source; their conditions may differ. Marks after values point to notes of the source that are not given here.
# Experiments:
# [1] = test system: cigarette smoke-exposed guinea pigs; test: Pulmonary function (RV, FEV100) in cigarette smoke-exposed guinea pigs; assay type: in vivo, guinea pig
# Excerpt: (§1) Guinea pigs were exposed to cigarette smoke using a smoking system (INH06-CIG01A, M.I.P.S. Inc.). Each animal was placed in an exposure holder, and the holder was fixed in an exposure chamber. Cigarette smoke of 30 cigarettes per day (Peace®, Japan Tobacco Inc.) was drawn from a smoke generator into the exposure chamber, 5 days per week, for 25 days (Days 1 to 25). In a sham exposure group, the atmospheric air, instead of cigarette smoke, was drawn into the exposure chamber.
# (§2) Aqueous solution of Compound A (13,14-dihydro-15-keto-16,16-difluoro-18(S)-methyl-PGE1) was vaporized using a pressurized nebulizer (LC Plus Nebulizer, Pari GmbH) and inhaled by the animals in a chamber of an inhalation system (SIS-A, Sibata Scientific Technology Ltd.) for 30 minutes from 1 hr before the cigarette smoke exposure.
# After the sRaw measurements, animals were anesthetized with ketamine (60 mg/kg) and xylazine (8 mg/kg), and the trachea was cannulated. Pulmonary function was measured using a pulmonary function measurement system (Biosystem Manoeuvers, Buxco Electronics, Inc.). The parameters of measurement consisted of residual volume (RV) and forced expiratory volume at 100 msec (FEV100).
# [2] = test system: cigarette smoke-exposed guinea pigs; test: Specific airway resistance (sRaw) in cigarette smoke-exposed guinea pigs; assay type: in vivo, guinea pig; conditions: for Specific airway resistance (sRaw) Mean ± S.D.: 30 min from 1 hr before smoke exposure, Days 1 to 25, measured Day 26, n=7, control 2.154 ± 0.365, sham 1.131 ± 0.149
# Excerpt: as §1, §2
# Specific airway resistance (sRaw) of conscious animals was measured by a double flow plethysmo-graph technique with a respiratory function measurement system (Pulmos-1, M.I.P.S Inc.) on Day 26.
# [3] = test system: Human lung alveolar type II cells (A549); test: Cytochrome c translocation after cigarette smoke extract (CSE) treatment, cytochrome c ELISA; assay type: cell-based
# Method: Smoke from 8 cigarettes was drawn slowly through 100 ml of serum free culture medium and the resulting suspension was filtered through 0.20 μm filter. The solution was considered as 100% cigarette smoke extract (CSE). Human lung alveolar type II cells (A549) were grown in 96 well plates for 48 hrs at a final concentration of 1.5×10^5 cells per well. The cells were then treated separately with either 100 nM Compound A or 1%, 2.5% and 5% CSE. In other sets, 100 nM Compound A was added along with 1%, 2.5% or 5% CSE. All incubations were done at 37° C. for 24 hrs. After 24 hr treatment, the cells were washed with 0-4° C. PBS three times. Measurement of cytochrome c that was translocated into the cytosol, a marker of cellular injury, was performed according to the instructions provided with a kit for cytochrome c ELISA assay.
# [4] = test system: cigarette smoke-exposed guinea pigs; test: Macrophage (monocyte) count in bronchoalveolar lavage fluid of cigarette smoke-exposed guinea pigs; assay type: in vivo, guinea pig
# Excerpt: as §1, §2
# After the measurement of pulmonary function, the animals were sacrificed by exsanguination under anesthesia and the thorax was opened. Five milliliters of saline were instilled into the lungs through a tracheal cannula, and the lavage fluid was recovered by gentle aspiration. This procedure was repeated and the recovered lavage fluid was combined (10 mL in total, bronchoalveolar lavage fluid, BALF). The number of macrophages (monocyte) in the BALF was counted.
# [5] = compared with the control group
compound,measurement,setting,value
"CC[C@H](C)CC(F)(F)C(=O)CC[C@H]1[C@H](O)CC(=O)[C@@H]1CCCCCCC(=O)O [Compound A, 13,14-dihydro-15-keto-16,16-difluoro-18(S)-methyl-PGE1]",Effect on decrease in FEV100 induced by cigarette smoke exposure,[1]; [5],significantly inhibited these changes
same,Effect on increase in residual volume (RV) induced by cigarette smoke exposure,[1]; [5],significantly inhibited these changes
same,RV (residual volume) Mean ± S.D.,"[1]; inhaled aqueous solution 1 μg/mL, n=7, control 5.44 ± 1.43, sham 2.75 ± 1.45",3.45 ± 1.07 mL
same,FEV100 (forced expiratory volume at 100 msec) Mean ± S.D.,"[1]; inhaled aqueous solution 1 μg/mL, n=7, control 5.75 ± 3.29, sham 9.87 ± 1.17",10.38 ± 1.08 mL
same,Effect on increase in sRaw induced by cigarette smoke exposure,[2]; [5],significantly inhibited the increase in sRaw
same,Specific airway resistance (sRaw) Mean ± S.D.,[2]; inhaled aqueous solution 1 μg/mL,1.417 ± 0.226 cmH2O · sec
same,Specific airway resistance (sRaw) Mean ± S.D.,[2]; inhaled aqueous solution 10 μg/mL,1.383 ± 0.241 cmH2O · sec
same,"Cytosolic cytochrome c, compound alone","[3]; 100 nM Compound A alone, no CSE, 24 hours",Neither 0.1% DMSO (B) (vehicle for Compound A) nor Compound A (C) alone significantly affected cytosolic cytochrome c
same,Cytochrome c translocation induced by CSE,"[3]; 100 nM Compound A with 1%, 2.5% and 5% CSE, 24 hrs, compared to DMSO control (P<0.05, P<002 and P<0.005)",protected against the cytochrome c translocation induced by CSE; also recorded: significantly decreased cytochrome c translocation
same,Effect on increase in number of macrophages (monocyte) in BALF induced by cigarette smoke exposure,[4]; [5],significantly inhibited the increase in number of macrophages (monocyte)
same,Monocyte/Macrophage count in bronchoalveolar lavage fluid Mean ± S.D.,"[4]; inhaled aqueous solution 1 μg/mL, n=7, control 14.42 ± 3.00, sham 4.52 ± 1.73",10.35 ± 2.53* 10^2 cells/μL
